pIC50: −log10 of the molar value.
How the values were obtained:
hENPP2 [1] = biological target: T1, hENPP2 (UniProtKB/SwissProt Sequence ref Q13822) (Homo sapiens (Human), UniProt Q13822); assay: LPC hENPP2 assay (choline release, LPC as substrate); format: biochemical
Outline: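 Detection is coupled: choline oxidase produces peroxide, which HRP uses to form quinoneimine dye from TOOS and 4-aminoantipyrine, read at 555 nm. The reaction is stopped with 20 mM EGTA in the developer mix, then incubated 30 min at room temperature; inhibition lowers signal.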

hENPP2 [2] = biological target: T1, hENPP2; assay: FS3 hENPP2 assay (fluorogenic substrate FS-3); format: biochemical; conditions: hENPP2, FS-3 as substrate
Description: Compound IC50 values are determined in a fluorescent hENPP2 (UniProtKB/SwissProt Sequence ref Q13822) biochemical assay using the fluorogenic autotaxin substrate FS-3 as substrate. FS-3 is a doubly labeled analog of LPC wherein the fluorophore is quenched through intramolecular energy transfer. Without hENPP2, the emission of the probe is quenched. If the substrate is hydrolyzed by hENPP2, the emission of the probe is not quenched anymore resulting in a fluorescence increase. Inhibition of hENPP2 by compounds will result in a decrease of the signal.
10 μL of a dilution series of compound, starting from 20 μM highest concentration, ⅕ dilution, is added to the wells. hENPP2 is used at a final concentration of 0.4 μg/mL or 0.64 μg/mL (it will be appreciated by the skilled person that the potency read out is independent of the enzyme concentration). The enzyme is diluted in 50 mM Tris-HCl pH 8.0, 250 mM NaCl, 5 mM KCl, 1 mM MgCl2, 1 mM CaCl2, 0.1% fatty acid free BSA in a total volume of 20 μL. Enzyme mixture is added to compounds and the resulting mixture is incubated for 30 min at room temperature under shaking. The reaction is started by the addition of 20 μL of 0.75 μM FS-3 diluted in the same buffer as described above and the mixture is incubated at 30° C. for 30 min. Fluorescence is read on the Envision (Excitation 485 nm, emission 520 nm).

Row | SMILES | pIC50 (hENPP2 [1]) | pIC50 (hENPP2 [2])
1 | CN(c1nc(-c2ccc(F)cc2)cs1)c1c(CCC(N)=O)nc2ccc(C3CCN(S(C)(=O)=O)CC3)nn12 [Compound 197, 3-(3-((4-(4-fluorophenyl)thiazol-2-yl)(methyl)amino)-6-(1-(methylsulfonyl)piperidin-4-yl)imidazo[1,2-b]pyridazin-2-yl)propanamide] | 6.00 to 6.30 | 7.60 to 11.00
2 | CCc1nc2ccc(C3=CCN(C(=O)OC(C)(C)C)CC3)nn2c1N(C)c1nc(-c2ccc(F)cc2)cs1 [Compound 193, tert-butyl 4-(2-ethyl-3-((4-(4-fluorophenyl)thiazol-2-yl)(methyl)amino)imidazo[1,2-b]pyridazin-6-yl)-5,6-dihydropyridine-1(2H)-carboxylate] | – | 7.60 to 11.00
3 | CCc1nc2ccc(N3CCC(N4CCS(=O)(=O)CC4)C3)nn2c1N(C)c1nc(-c2ccc(F)cc2)cs1 (stereo not shown) [Cpd 150, {6-[3-(1,1-Dioxo-thiomorpholin-4-yl)-pyrrolidin-1-yl]-2-ethyl-imidazo[1,2-b]pyridazin-3-yl}-[4-(4-fluoro-phenyl)-thiazol-2-yl]-methyl-amine] | < 6.00 | 7.60 to 11.00
4 | CCc1nc2ccc(N3CCC(O)C3)nn2c1N(C)c1nc(-c2ccc(F)cc2)cs1 (stereo not shown) [Cpd 129, 1-(2-ethyl-3-((4-(4-fluorophenyl)thiazol-2-yl)(methyl)amino)imidazo[1,2-b]pyridazin-6-yl)pyrrolidin-3-ol] | < 6.00 | 7.60 to 11.00
5 | CCc1nc2ccc(N3CCN(CC(=O)NC(C)C)CC3)nn2c1N(C)c1nc(-c2ccc(F)cc2)cs1 [Cpd 54, 2-(4-(2-ethyl-3-((4-(4-fluorophenyl)thiazol-2-yl)(methyl)amino)imidazo[1,2-b]pyridazin-6-yl)piperazin-1-yl)-N-isopropylacetamide] | < 6.00 | 7.60 to 11.00
6 | CCc1nc2ccc(N3CCN(S(C)(=O)=O)[C@H](CO)C3)nn2c1N(C)c1nc(-c2ccc(F)cc2)cs1 [Cpd 67, (S)-(4-(2-ethyl-3-((4-(4-fluorophenyl)thiazol-2-yl)(methyl)amino)imidazo[1,2-b]pyridazin-6-yl)-1-(methylsulfonyl)piperazin-2-yl)methanol] | 6.30 to 7.00 | 7.60 to 11.00
7 | CCc1nc2ccc(N3CC4CN(C(=O)OC(C)(C)C)CC4C3)nn2c1N(C)c1nc(-c2ccc(F)cc2)cs1 (stereo not shown) [Cpd 122, tert-butyl 5-(2-ethyl-3-((4-(4-fluorophenyl)thiazol-2-yl)(methyl)amino)imidazo[1,2-b]pyridazin-6-yl)hexahydro-pyrrolo[3,4-c] pyrrole-2(1H)-carboxylate] | < 6.00 | 7.60 to 11.00
8 | CCc1nc2ccc(N3CCOCC3)nn2c1N(C)c1nc(-c2ccc(F)cc2)cs1 [Cpd 78, N-(2-ethyl-6-morpholinoimidazo [1,2-b]pyridazin-3-yl)-4-(4-fluorophenyl)-N-methylthiazol-2-amine] | < 6.00 | 7.60 to 11.00
9 | CCc1nc2cnc(C3CCNCC3)cn2c1N(C)c1nc(-c2ccc(F)cc2)c(C#N)s1 [Cpd 22, 2-((2-ethyl-6-(piperidin-4-yl)imidazo[1,2-a]pyrazin-3-yl)(methyl)amino)-4-(4-fluorophenyl) thiazole-5-carbonitrile] | < 6.00 | 7.30 to 7.60
10 | CCc1nc2ccc(N3CCN4C(=O)OC[C@@H]4C3)nn2c1N(C)c1nc(-c2ccc(F)cc2)cs1 [Compound 61, (S)-7-(2-ethyl-3-((4-(4-fluorophenyl)thiazol-2-yl)(methyl)amino)imidazo[1,2-b]pyridazin-6-yl)tetrahydro-1H-oxazolo[3,4-a]pyrazin-3 (5H)-one] | < 6.00 | 7.60 to 11.00
11 | CCc1nc2ccc(N3CCCC(C(N)=O)C3)nn2c1N(C)c1nc(-c2ccc(F)cc2)cs1 (stereo not shown) [Cpd 99, 1-(2-ethyl-3-((4-(4-fluorophenyl)thiazol-2-yl)(methyl)amino)imidazo[1,2-b]pyridazin-6-yl)piperidine-3-carboxamide] | < 6.00 | 7.60 to 11.00
12 | CCc1nc2ccc(N3CCN(C(=O)C4CCCO4)CC3)nn2c1N(C)c1nc(-c2ccc(F)cc2)cs1 (stereo not drawn) [Cpd 47, (4-(2-ethyl-3-((4-(4-fluorophenyl)thiazol-2-yl)(methyl)amino)imidazo[1,2-b]pyridazin-6-yl)piperazin-l-yl)(tetrahydrofuran-2-yl)methanone] | < 6.00 | 7.60 to 11.00
13 | CCc1nc2ccc(N3CCS(=O)(=O)CC3)nn2c1N(C)c1nc(-c2ccc(F)cc2)cs1 [Compound 79, [6-(1,1-Dioxothiomorpholin-4-yl)-2-ethyl-imidazo[1,2-b]pyridazin-3-yl]-[4-(4-fluoro-phenyl)-thiazol-2-yl]-methyl-amine] | < 6.00 | 7.30 to 7.60
14 | CCc1nc2ccc(N3CCN(CCC(N)=O)CC3)nn2c1N(C)c1nc(-c2ccc(F)cc2)cs1 [Compound 52, 3-(4-(2-ethyl-3-((4-(4-fluorophenyl)thiazol-2-yl)(methyl)amino)imidazo[1,2-b]pyridazin-6-yl)piperazin-1-yl)propanamide] | 6.00 to 6.30 | 7.60 to 11.00
15 | CN(c1nc(-c2ccc(F)cc2)cs1)c1c(CCCO)nc2ccc(C3CCN(S(C)(=O)=O)CC3)nn12 [Compound 200, 3-(3-((4-(4-fluorophenyl)thiazol-2-yl)(methyl)amino)-6-(1-(methylsulfonyl)piperidin-4-yl)imidazo[1,2-b]pyridazin-2-yl)propan-1-ol] | < 6.00 | 7.60 to 11.00
16 | CCc1nc2ccc(N3CCC(CO)C3)nn2c1N(C)c1nc(-c2ccc(F)cc2)cs1 (stereo not shown) [Cpd 143, (1-(2-ethyl-3-((4-(4-fluorophenyl)thiazol-2-yl)(methyl)amino)imidazo[1,2-b]pyridazin-6-yl)pyrrolidin-3-yl)methanol] | < 6.00 | 7.60 to 11.00
17 | CCc1nc2ccc(N3CCC(C(=O)NCCO)CC3)nn2c1N(C)c1nc(-c2ccc(F)cc2)cs1 [Compound 97, 1-(2-ethyl-3-((4-(4-fluorophenyl)thiazol-2-yl)(methyl)amino)imidazo[1,2-b]pyridazin-6-yl)-N-(2-hydroxyethyl)piperidine-4-carboxamide] | 6.00 to 6.30 | 7.60 to 11.00
18 | CCc1nc2cnc(N3CCNCC3)cn2c1N(C)c1nc(-c2ccc(F)cc2)c(C#N)s1 [Compound 1, 2-((2-ethyl-6-(piperazin-1-yl)imidazo[1,2-a]pyrazin-3-yl)(methyl)amino)-4-(4-fluorophenyl)thiazole-5-carbonitrile] | < 6.00 | –
19 | CCc1nc2cnc(C3=CCN(S(C)(=O)=O)CC3)cn2c1N(C)c1nc(-c2ccc(F)cc2)c(C#N)s1 [Cpd 20, 2-((2-ethyl-6-(1-(methylsulfonyl)-1,2,3,6-tetrahydropyridin-4-yl)imidazo[1,2-a]pyrazin-3-yl)(methyl)amino)-4-(4-fluorophenyl) thiazole-5-carbonitrile] | < 6.00 | –
20 | CCc1nc2ccc(N3CC(C(=O)N4CCOCC4)C3)nn2c1N(C)c1nc(-c2ccc(F)cc2)c(C#N)s1 [Cpd 191, 2-((2-ethyl-6-(3-(morpholine-4-carbonyl)azetidin-1-yl)imidazo[1,2-b]pyridazin-3-yl)(methyl)amino)-4-(4-fluorophenyl) thiazole-5-carbonitrile] | 6.30 to 7.00 | –
21 | CCc1nc2ccc(N3CCC(CNC(=O)N(C)C)CC3)nn2c1N(C)c1nc(-c2ccc(F)cc2)cs1 [Cpd 106, 3-((l-(2-ethyl-3-((4-(4-fluorophenyl)thiazol-2-yl)(methyl)amino)imidazo[1,2-b]pyridazin-6-yl)piperidin-4-yl)methyl)-1,1-dimethylurea] | < 6.00 | –
